These results are taken from ChEMBL document CHEMBL3046094, “Predicting anti-HIV activity of 1,1,3-trioxo[1,2,4]-thiadiazine (TTD) derivatives: 3D QSAR approach” (Med Chem Res, 2009).

Broadly, the EC50 is the concentration giving half of the maximal effect.

This test relates to Human immunodeficiency virus 1. Briefly: Antiviral activity against Human immunodeficiency virus 1 infected human MT4 cells assessed as inhibition of virus-induced cytopathic effect by MTT assay. The format is functional, organism-based. Conditions: Human immunodeficiency virus 1, MT4.

Regarding `N#CCN1C(=O)N(Cc2cccc(Cl)c2)S(=O)(=O)c2cscc21`, the EC50 came out at 0.1 µM.

In the case of `N#CCN1C(=O)N(Cc2cccc(F)c2)S(=O)(=O)c2cscc21`, the EC50 worked out at 0.3 µM.

Take `O=C1N(Cc2ccccc2)c2cscc2S(=O)(=O)N1CCc1ccccc1`: the EC50 came to 41.4 µM.

`N#CCN1C(=O)N(Cc2cc(F)cc(F)c2)S(=O)(=O)c2cscc21`: the EC50 was found to be 8.6 µM.

With `N#CCN1C(=O)N(Cc2ccccc2)S(=O)(=O)c2cscc21`, the EC50 was determined as 0.87 µM.

On to `O=C1N(Cc2ccccc2)c2cscc2S(=O)(=O)N1Cc1ccccn1`, for which the EC50 turned out to be 0.2 µM.

As for `CN1C(=O)N(Cc2cccc(Cl)c2)S(=O)(=O)c2cscc21`, the 50% effective concentration (EC50) was 2.1 µM.

Turning to `CCN1C(=O)N(Cc2ccccc2)S(=O)(=O)c2cscc21`, the EC50 worked out at 2.4 µM.

Regarding `CCN1C(=O)N(Cc2ccccn2)S(=O)(=O)c2cscc21`, the concentration for a half-maximal effect (EC50) was 1.1 µM.

On to `CCN1C(=O)N(c2cccc(Cl)c2)S(=O)(=O)c2cscc21`, for which the EC50 stood at 61.3 µM.

Turning to `CCCN1C(=O)N(Cc2ccccc2)S(=O)(=O)c2cscc21`, the EC50 stood at 6.1 µM.

`C=CCN1C(=O)N(Cc2ccccc2)S(=O)(=O)c2cscc21`: the EC50 turned out to be 6.3 µM.

Regarding `N#CCCN1C(=O)N(Cc2ccccc2)S(=O)(=O)c2cscc21`, the EC50 came out at 4.9 µM.

Consider `O=C1N(c2cccc(Cl)c2)c2cscc2S(=O)(=O)N1Cc1ccccc1`, for which the EC50 is 1.4 µM.

With `O=C1N(c2ccc(Cl)cc2)c2cscc2S(=O)(=O)N1Cc1ccccc1`, the EC50 came to 7.4 µM.

For the molecule `O=C1N(c2ccccc2Cl)c2cscc2S(=O)(=O)N1Cc1ccccc1`, the EC50 worked out at 0.1 µM.

With `C#CCN1C(=O)N(Cc2ccccc2)S(=O)(=O)c2cscc21`, the EC50 worked out at 0.96 µM.

Regarding `N#CCN1C(=O)N(CCc2ccccc2)S(=O)(=O)c2cscc21`, the EC50 turned out to be 10.9 µM.

Turning to `N#CCN1C(=O)N(Cc2ccccn2)S(=O)(=O)c2cscc21`, the concentration giving a half-maximal response (EC50) stood at 0.4 µM.

For the molecule `CCN1C(=O)N(Cc2cccc(Cl)c2)S(=O)(=O)c2cscc21`, the concentration giving a half-maximal response (EC50) came out at 0.09 µM.

Take `O=C1N(Cc2ccccc2)c2cscc2S(=O)(=O)N1Cc1ccccc1`: the EC50 turned out to be 2.2 µM.

`C#CCN1C(=O)N(Cc2cccc(Cl)c2)S(=O)(=O)c2cscc21`: the half-maximal effective concentration (EC50) was found to be 0.09 µM.

Turning to `N#CCN1C(=O)N(Cc2cccc(Br)c2)S(=O)(=O)c2cscc21`, the EC50 was determined as 0.05 µM.

Consider `CCN1C(=O)N(Cc2ccccc2Cl)S(=O)(=O)c2cscc21`, for which the EC50 was determined as 7.6 µM.

`N#CCN1C(=O)N(Cc2cccnc2)S(=O)(=O)c2cscc21`: the half-maximal effective concentration (EC50) turned out to be 0.8 µM.

For `CCOC(=O)CN1C(=O)N(Cc2ccccc2)S(=O)(=O)c2cscc21`, the EC50 was found to be 7.3 µM.

Consider `CCN1C(=O)N(CCc2ccccc2)S(=O)(=O)c2cscc21`, for which the EC50 amounted to 3.6 µM.

With `CN1C(=O)N(Cc2ccccc2)S(=O)(=O)c2cscc21`, the half-maximal effective concentration (EC50) came to 2.7 µM.
